From ChEMBL document CHEMBL1132037, “Anabaenopeptins G and H, potent carboxypeptidase A inhibitors from the cyanobacterium Oscillatoria agardhii (NIES-595)” (Bioorg Med Chem Lett, 1999)
In brackets after ≈: the same amount, converted by molar mass. Numbered stars: 1 amine (or outer) side, 2 acyl side, 3 side chain; on linkers, the order of the positions; unused ones are H or OH. Bridge positions count the residues as written; N and C are the ends. Square brackets hold non-standard residues; d marks the D form. Peptide text beside a SMILES is read from it. NMehTyr = CN[C@@H](CCc1ccc(O)cc1)C(=O)O; hTyr = N[C@@H](CCc1ccc(O)cc1)C(=O)O; NMeA = CN[C@@H](C)C(=O)O; CO = O=C([*:1])[*:2]

Legend:
[1] = biological target: Carboxypeptidase A1 (Bos taurus) (UniProt P00730); experiment: Ability to inhibit Carboxypeptidase A from bovine pancreas at a concentration of 50 ug/mL; No Activity
[2] = biological target: Carboxypeptidase A1 (Bos taurus) (UniProt P00730); experiment: Ability to inhibit Carboxypeptidase A from bovine pancreas

Row | SMILES | IC50 [1] | IC50 [2] [µg/mL]
1 | COc1ccc(CC[C@@H]2NC(=O)[C@H](C(C)C)NC(=O)[C@H](NC(=O)N[C@@H](CCCN=C(N)N)C(=O)O)CCCCNC(=O)[C@H](Cc3ccccc3)NC(=O)[C@H](C)N(C)C2=O)cc1 | Not Active | –
2 | CC[C@H](C)[C@@H]1NC(=O)[C@H](NC(=O)NC(Cc2ccc(O)cc2)C(=O)O)CCCCNC(=O)[C@H]([C@@H](C)CC)NC(=O)[C@H](CCc2ccc(O)cc2)N(C)C(=O)[C@H](CCc2ccc(O)cc2)NC1=O (stereo partly specified) | – | 0.0018 (≈ 0.00194 µM)
3 | CC(C)[C@@H]1NC(=O)[C@H](NC(=O)N[C@@H](CCCNC(=N)N)C(=O)O)CCCCNC(=O)[C@H](Cc2ccccc2)NC(=O)[C@H](C)N(C)C(=O)[C@H](CCc2ccc(O)cc2)NC1=O [ANABAENOPEPTIN B] ({Arg-CO}-[dK]V[hTyr][NMeA]F; lactam 1-C) | Not Active | –
4 | CC[C@H](C)[C@@H]1NC(=O)[C@H](NC(=O)N[C@@H](CCCNC(=N)N)C(=O)O)CCCCNC(=O)[C@H](Cc2ccccc2)NC(=O)[C@H](C)N(C)C(=O)[C@H](CCc2ccc(O)cc2)NC1=O [ANABAENOPEPTIN F] ({Arg-CO}-[dK]I[hTyr][NMeA]F; lactam 1-C) | Not Active | –
5 | CC[C@H](C)[C@@H]1NC(=O)[C@H](NC(=O)N[C@@H](CCCNC(=N)N)C(=O)O)CCCCNC(=O)[C@H]([C@@H](C)CC)NC(=O)[C@H](CCc2ccc(O)cc2)N(C)C(=O)[C@H](CCc2ccc(O)cc2)NC1=O [ANABAENOPEPTIN H] ({Arg-CO}-[dK]I[hTyr][NMehTyr]I; lactam 1-C) | – | 3.4 (≈ 3.68 µM)
6 | CC[C@H](C)[C@H](NC(=O)N[C@@H]1CCCCNC(=O)[C@H]([C@@H](C)CC)NC(=O)[C@H](CCc2ccc(O)cc2)N(C)C(=O)[C@H](CCc2ccc(O)cc2)NC(=O)[C@H](C(C)C)NC1=O)C(=O)O [ANABAENOPEPTIN T] | – | 2 (≈ 2.31 µM)
